The text below walks through data of paper PMC4738246, “Conformational dynamics is key to understanding loss-of-function of NQO1 cancer-associated polymorphisms and its correction by pharmacological ligands” (Scientific Reports, 2016).

Each structure is given as a SMILES string. Like-named read-outs stand apart in the source and are kept apart here.

The target of experiment [1] is T1, NQO1 WT (Homo sapiens, UniProt P15559). The experiment in a line: Proteolysis by thermolysin, WT NQO1. The following applies: WT apo-protein vs as purified.
Protocol: (§2) Proteolysis was performed at 25 °C in HEPES-KOH 50 mM CaCl2 10 mM pH 7.4 using 20 μM in NQO1 (monomer), and the reaction was initiated by the addition of thermolysin (at a final concentration of 10 pM-1 μM) in a final volume of 200 μL. Proteolysis reactions were performed using the NQO1 proteins as purified or as apo-proteins. […] After normalization of the intensities using that of the control sample in the absence of thermolysin, the Intensity (I) vs. Time (t) profiles were analyzed using a single exponential function:
(§3) where k is the proteolysis rate constant and I0 the initial intensity.
Experiment [2] has as its target T2, NQO1 p.R139W (Homo sapiens, UniProt P15559, R139W). The experiment in a line: Proteolysis by thermolysin, p.R139W NQO1. The following applies: p.R139W apo-protein vs as purified.
Protocol: as §2, §3
The target in experiment [3] is T1, NQO1 WT. Also noted: made in house. The settings on record: FAD binding to WT, two-sequential binding sites model, average of two titrations, cited from earlier work.
Experiment [4] has as its target T2, NQO1 p.R139W. Set-up: made in house. The following applies: FAD binding to p.R139W, two-sequential binding sites model, average of two titrations, cited from earlier work.
Experiment [5] addresses T3, NQO1 p.P187S (Homo sapiens, UniProt P15559, P187S). Put plainly: Binding affinity by ITC, p.P187S NQO1. The following applies: FAD and dicoumarol stated together. (In general: ITC needs no label: the signal is the heat of the interaction.)
Protocol: After peak integration, binding isotherms were analyzed using a one-type of independent sites model using the software provided by the manufacturer.
Experiment [6] concerns the target T3, NQO1 p.P187S. Also noted: made in house. The following applies: FAD binding to p.P187S; single set of sites model; average of two titrations; read-out: Kd1; cited from earlier work.
For experiment [7], the system named is HCT 116 cells (heterozygous for p.R139W). The settings on record: 24 h, dicoumarol 100 μM, riboflavin 10 μM. The method, then: (§1) After transferring to polyvinylidene difluoride membranes (GE Healthcare), immunoblotting was carried out using primary monoclonal antibodies anti-NQO1 and anti-β-actin (Santa Cruz Biotechnology) from mouse at 1:500 and 1:10000 dilutions, respectively. As secondary antibody, we used goat anti-mouse IgG-HRP (Santa Cruz Biotechnology) at 1:1000 dilution. Chemiluminiscent detection of bands was carried out using Clarity™ Western ECL Blotting Substrate (Biorad) and analyzed using a luminescent image analyzer LAS-4000 mini (Fujifilm).

For experiment [8], the system named is HeLa cells (expressing WT NQO1). The following applies: 24 h, dicoumarol 100 μM, riboflavin 10 μM. The method, then:
as §1

Experiment [9] deals with Caco-2 cells (homozygous for p.P187S). Put plainly: Steady-state NQO1 protein levels by immunoblotting, Caco-2 cells. Type of experiment: cell-based, human. The settings on record: 24 h, dicoumarol 100 μM, riboflavin 10 μM, normalized to untreated cells. The method, then:
as §1

T2 sequence (P15559 whole entry R139W): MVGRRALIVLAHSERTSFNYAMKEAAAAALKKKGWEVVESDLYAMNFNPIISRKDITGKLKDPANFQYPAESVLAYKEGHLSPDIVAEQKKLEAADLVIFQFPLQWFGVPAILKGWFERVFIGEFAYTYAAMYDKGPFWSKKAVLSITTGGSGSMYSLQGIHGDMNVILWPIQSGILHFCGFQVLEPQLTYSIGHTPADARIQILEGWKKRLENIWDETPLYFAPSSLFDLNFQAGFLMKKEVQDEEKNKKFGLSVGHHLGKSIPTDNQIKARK
T1 sequence (P15559 whole entry): as the sequence (P15559 whole entry R139W) above, with W139R counted along it
T3 sequence (P15559 whole entry P187S): as the sequence (P15559 whole entry R139W) above, with W139R, P187S counted along it

Consider `Cc1cc2nc3c(=O)[nH]c(=O)nc-3n(C[C@H](O)[C@H](O)[C@H](O)COP(=O)(O)OP(=O)(O)OC[C@H]3O[C@@H](n4cnc5c(N)ncnc54)[C@H](O)[C@@H]3O)c2cc1C` [FAD], for which the “increase in the sensitivity towards thermolysin on removal of FAD” value at NQO1 WT [1] and on NQO1 p.R139W [2] was 200 fold throughout. Moreover, the Kd is ~0.001 µM at NQO1 WT [3] (read-out: Kd1); 0.06 µM on NQO1 WT [3] (read-out: Kd2); ~0.003 µM on NQO1 p.R139W [4] (read-out: Kd1); 0.07 µM on NQO1 p.R139W [4] (read-out: Kd2); 0.4 µM at NQO1 p.P187S [6]. Besides, the “lower affinity of p.P187S than the WT enzyme” value at NQO1 p.P187S [5] is reported as 10–100 fold.
As to `Cc1cc2nc3c(=O)[nH]c(=O)nc-3n(C[C@H](O)[C@H](O)[C@H](O)CO)c2cc1C` [riboflavin], in experiment [7], the “effect on protein levels of p.R139W NQO1” value is reported as “small effects”. In addition, in [8], the “effect on protein levels of WT NQO1” value was “small effects”. In experiment [9], the “enhancement of steady-state levels of p.P187S NQO1 protein” value is given as “much lower effect”.
